# Read-outs that look alike come from different tables or passages of the source.
# Assays:
# [1] = test system: Erythroid progenitor cells; conditions: cultured marrow and blood cells from normal patients; cited from earlier work
# neutrophils [2] = conditions: chronic lymphocytic leukemia, serum levels less than 10 nM, in most cases; cited from earlier work
# [3] = test system: Colony forming unit-granulocyte macrophage (CFU-GM) cells; conditions: read-out: IC50 (concentration required to inhibit 50 percent of growth); CFU-GM cells from normal patients; cited from earlier work
# Phase I study, toxicity = format: in vivo, human
# Procedure: (§1) The patients received continuous infusions of either 0.10, 0.15 or 0.20 mg/kg/day over seven day time periods in up to five monthly cycles. The patients with malignant astrocytomas received either 0.10 or 0.15 mg/kg/day; none receiving 0.20 mg/kg/day.
# (§2) The finally diluted solution was infused through central venus access using an infusion pump device (Pharmacia Deltec Cadd) for out-patients, or infused by usual venus infusion for in-patients.
# [4] = test system: Primitive burst-forming unit-erythroid (pBFU-E) cells; conditions: read-out: IC50 (concentration required to inhibit 50 percent of growth); pBFU-E cells from normal patients; cited from earlier work
# [5] = test system: colony forming unit-erythroid (CFU-E) cells; conditions: read-out: IC50 (concentration required to inhibit 50 percent of growth); CFU-E cells from normal patients; cited from earlier work
# [6] = test system: Mature BFU-E (mBFU-E) cells; conditions: read-out: IC50 (concentration required to inhibit 50 percent of growth); mBFU-E cells from normal patients; cited from earlier work
# malignant astrocytoma = assay: Phase I study, tumor response in malignant astrocytoma; format: in vivo, human
# Source text: (§3) A response to this treatment process can be determined according to the criteria proposed by Macdonald et al., J. Clin. Oncol., 8:1277-1280 (1990). A complete response requires the disappearance of all enhancing tumor on consecutive CAT or MRI scans at least one month apart, off steroids, and that the patient be neurologically stable or improved. A partial response is defined as a greater or equal to 50 percent decrease in size (largest cross-sectional area) of enhancing tumor on consecutive CAT or MRI scans at least one month apart, steroids stable or reduced, and that the patient be neurologically stable or improved. All other tumor responses were designated as no response.
# as §1, §2
# (§4) Each of the patients, except three (one renal cell carcinoma and two malignant melanoma) patients, had received a prior treatment. Each of the patients with malignant astrocytoma had been treated both surgically and with X-rays or by chemotherapy.
# renal cell carcinoma = assay: Phase I study, tumor response in renal cell carcinoma; format: in vivo, human; conditions: two patients
# Source text: as §3, §1, §2, §4
# granulocyte [7] = assay: Clinical treatment of multiple sclerosis, granulocyte counts; format: in vivo, human; conditions: about 0.1 mg/kg/day, seven day courses of continuous infusion, after several courses
# granulocyte [8] = conditions: hairy cell leukemia, cited from earlier work
# neutrophils [9] = conditions: cutaneous T cell lymphoma, 0.1 mg/kg per day over 7 days; cited from earlier work
# CFU-GM cells = conditions: 100 nM 2-CdA; cited from earlier work
# malignant melanoma = assay: Phase I study, tumor response in malignant melanoma; format: in vivo, human; conditions: twelve patients
# Source text: as §3, §1, §2, §4
# CML in blast crisis = conditions: cited from earlier work
smiles,measurement,setting,value
"Nc1nc(Cl)nc2c1ncn2[C@H]1C[C@H](O)[C@@H](CO)O1 [2-CdA, 2-chloro-2'-deoxyadenosine]",sensitivity of erythroid progenitor cells to 2-CdA,[1],"dose-dependent sensitivity to 2-CdA, with that sensitivity decreasing as the stage of progenitor maturation increased"
same,neutrophil count,neutrophils [2],increase in neutrophil count
same,IC50,[3],16 nM
same,myelosuppression per cycles,"Phase I study, toxicity; 0.10 mg/kg/day",1/18
same,myelosuppression per cycles,"Phase I study, toxicity; 0.15 mg/kg/day",5/22
same,myelosuppression per cycles,"Phase I study, toxicity; 0.20 mg/kg/day",3/4
same,"myelosuppression, dose dependence","Phase I study, toxicity; 0.10, 0.15, 0.20 mg/kg/day",increased with dosage
same,principal toxic effect,"Phase I study, toxicity; all patients",Myelosuppression
same,"alopecia, nausea, vomiting, cardiopulmonary, renal or hepatic toxicity","Phase I study, toxicity; any patient of the study","No alopecia, nausea, vomiting, cardiopulmonary, renal or hepatic toxicity occurred"
same,myelosuppression in patients with previous biologic therapy,"Phase I study, toxicity; in vivo",all of the patients with previous biologic therapy treatment developed myelosuppression
same,patients with prior chemotherapy among those who developed myelosuppression,"Phase I study, toxicity; in vivo",five of eight
same,patients with prior chemotherapy among those without myelosuppression,"Phase I study, toxicity; in vivo",two of thirteen
same,patients with prior biologic therapies among those exhibiting myelosuppression,"Phase I study, toxicity; interferon, interleukin-2, or lymphocyte-activated killer cells",Four of the eight
same,patients exhibiting myelosuppression,"Phase I study, toxicity; malignant astrocytoma (GBM), seven patients",Two of the seven
same,patients exhibiting delayed neurotoxicities,"Phase I study, toxicity; malignant melanoma with prior therapy, unknown whether directly from 2-CdA",Two
same,type of myelosuppression,"Phase I study, toxicity; one astrocytoma patient with prior surgical and X-ray treatments, after the fifth cycle",both neutropenia and thrombocytopenia
same,"myelosuppression (grades 3 or 4 neutropenia or thrombocytopenia), frequency by pretreatment","Phase I study, toxicity; prior exposure to systemic chemotherapy",more frequent in patients having had prior exposure to systemic chemotherapy
same,IC50,[4],19 nM
same,IC50,[5],56 nM
same,IC50,[6],38 nM
same,duration of partial response,"malignant astrocytoma; patient No. 1, grade 2 astrocytoma, four cycles at 0.10 mg/kg/day",seven
same,coronal MRI of brain after treatment,"malignant astrocytoma; patient No. 1, intravenous contrast",resolution of tumor enhancement
same,axial spin echo MRI of brain after treatment,malignant astrocytoma; patient No. 12,complete regression of the edema and shrinkage of the cyst
same,cyst on sagittal T1-weighted imaging after treatment,malignant astrocytoma; patient No. 12,smaller in size and higher in signal intensity
same,sagittal T1-weighted imaging of brain after treatment,malignant astrocytoma; patient No. 12,"complete regression of the temporal lobe swelling, with restoration of a normal sulcal pattern"
same,duration of partial response,"malignant astrocytoma; patient No. 12, GBM, five cycles at 0.15 mg/kg/day",nine
same,responding patients (partial response),"malignant astrocytoma; two of seven malignant astrocytoma patients, 0.1 or 0.15 mg/kg/day",28.6%
same,median duration of partial response,malignant astrocytoma; two responding patients,eight
same,patients with partial response,renal cell carcinoma,None
same,granulocyte counts,granulocyte [7],substantially unchanged
same,granulocyte counts,granulocyte [8]; transient neutropenia,under 500 per microliter
same,neutropenia,granulocyte [8]; particularly acute in patients already neutropenic,transient neutropenia
same,resistance of neutrophils relative to monocytes and lymphocytes,neutrophils [9],more resistant to 2-CdA than their monocytes and lymphocytes
same,reduction of growth of CFU-GM cells,CFU-GM cells,60%
same,patients with partial response,malignant melanoma,None
same,detectable tumor,CML in blast crisis; another of two patients,loss of detectable tumor
same,blast count,CML in blast crisis; one of two patients,decrease in blast count
